The values that follow come from PubChem BioAssay AID1259407 (Chemical Carcinogenesis Research Information System (CCRIS), 2018).

In the series the test system is CCRIS mutagenicity, Ames/micronucleus/aberration tests. In words: CCRIS mutagenicity studies.
Setting [1] is: Test System: AMES SALMONELLA TYPHIMURIUM, Strain/Indicator: TA98, Metabolic Activation: RAT, LIVER, S-9, AROCLOR 1254, Method: STANDARD PLATE.
The mark [2] stands for this setting: Test System: AMES SALMONELLA TYPHIMURIUM, Strain/Indicator: TA98, Metabolic Activation: NONE, Method: STANDARD PLATE.
The mark [3] stands for this setting: Test System: AMES SALMONELLA TYPHIMURIUM, Strain/Indicator: TA100, Metabolic Activation: NONE, Method: STANDARD PLATE.
Where [4] appears, read: Test System: AMES SALMONELLA TYPHIMURIUM, Strain/Indicator: TA1537, Metabolic Activation: NONE, Method: STANDARD PLATE.

Active and inactive are the calls of the source. The rule behind the calls is not given here.

Regarding `Cc1ccc(Br)cc1`, the mutagenic call was “inactive; negative” (Test System: AMES SALMONELLA TYPHIMURIUM, Strain/Indicator: TA97, Metabolic Activation: HAMSTER, LIVER, S-9, AROCLOR 1254 (10%), Method: PREINCUBATION); “inactive; negative” (Test System: AMES SALMONELLA TYPHIMURIUM, Strain/Indicator: TA97, Metabolic Activation: HAMSTER, LIVER, S-9, AROCLOR 1254 (30%), Method: PREINCUBATION); “inactive; negative” (Test System: AMES SALMONELLA TYPHIMURIUM, Strain/Indicator: TA97, Metabolic Activation: NONE, Method: PREINCUBATION); “inactive; negative” (Test System: AMES SALMONELLA TYPHIMURIUM, Strain/Indicator: TA97, Metabolic Activation: RAT, LIVER, S-9, AROCLOR 1254 (10%), Method: PREINCUBATION); “inactive; negative” (Test System: AMES SALMONELLA TYPHIMURIUM, Strain/Indicator: TA97, Metabolic Activation: RAT, LIVER, S-9, AROCLOR 1254 (30%), Method: PREINCUBATION); “inactive; negative” (Test System: AMES SALMONELLA TYPHIMURIUM, Strain/Indicator: TA98, Metabolic Activation: HAMSTER, LIVER, S-9, AROCLOR 1254 (10%), Method: PREINCUBATION). Besides, the mutagenic call was “inactive; negative” (Test System: AMES SALMONELLA TYPHIMURIUM, Strain/Indicator: TA98, Metabolic Activation: HAMSTER, LIVER, S-9, AROCLOR 1254 (30%), Method: PREINCUBATION); “inactive; negative” (Test System: AMES SALMONELLA TYPHIMURIUM, Strain/Indicator: TA98, Metabolic Activation: NONE, Method: PREINCUBATION); “inactive; negative” (Test System: AMES SALMONELLA TYPHIMURIUM, Strain/Indicator: TA98, Metabolic Activation: RAT, LIVER, S-9, AROCLOR 1254 (10%), Method: PREINCUBATION); “inactive; negative” (Test System: AMES SALMONELLA TYPHIMURIUM, Strain/Indicator: TA98, Metabolic Activation: RAT, LIVER, S-9, AROCLOR 1254 (30%), Method: PREINCUBATION); “inactive; negative” (Test System: AMES SALMONELLA TYPHIMURIUM, Strain/Indicator: TA100, Metabolic Activation: HAMSTER, LIVER, S-9, AROCLOR 1254 (10%), Method: PREINCUBATION); “inactive; negative” (Test System: AMES SALMONELLA TYPHIMURIUM, Strain/Indicator: TA100, Metabolic Activation: HAMSTER, LIVER, S-9, AROCLOR 1254 (30%), Method: PREINCUBATION). In addition, the mutagenic call is, setting by setting: (Test System: AMES SALMONELLA TYPHIMURIUM, Strain/Indicator: TA100, Metabolic Activation: NONE, Method: PREINCUBATION) “inactive; negative”; (Test System: AMES SALMONELLA TYPHIMURIUM, Strain/Indicator: TA100, Metabolic Activation: RAT, LIVER, S-9, AROCLOR 1254 (10%), Method: PREINCUBATION) “inactive; negative”; (Test System: AMES SALMONELLA TYPHIMURIUM, Strain/Indicator: TA100, Metabolic Activation: RAT, LIVER, S-9, AROCLOR 1254 (30%), Method: PREINCUBATION) “inactive; negative”; (Test System: AMES SALMONELLA TYPHIMURIUM, Strain/Indicator: TA1535, Metabolic Activation: HAMSTER, LIVER, S-9, AROCLOR 1254 (10%), Method: PREINCUBATION) “inactive; negative”; (Test System: AMES SALMONELLA TYPHIMURIUM, Strain/Indicator: TA1535, Metabolic Activation: HAMSTER, LIVER, S-9, AROCLOR 1254 (30%), Method: PREINCUBATION) “inactive; negative”; (Test System: AMES SALMONELLA TYPHIMURIUM, Strain/Indicator: TA1535, Metabolic Activation: NONE, Method: PREINCUBATION) “inactive; negative”. The mutagenic call was “inactive; negative” (Test System: AMES SALMONELLA TYPHIMURIUM, Strain/Indicator: TA1535, Metabolic Activation: RAT, LIVER, S-9, AROCLOR 1254 (10%), Method: PREINCUBATION); “inactive; negative” (Test System: AMES SALMONELLA TYPHIMURIUM, Strain/Indicator: TA1535, Metabolic Activation: RAT, LIVER, S-9, AROCLOR 1254 (30%), Method: PREINCUBATION); “inactive; negative” (Test System: AMES SALMONELLA TYPHIMURIUM, Strain/Indicator: TA1537, Metabolic Activation: HAMSTER, LIVER, S-9, AROCLOR 1254 (30%), Method: PREINCUBATION); “inactive; negative” (Test System: AMES SALMONELLA TYPHIMURIUM, Strain/Indicator: TA1537, Metabolic Activation: NONE, Method: PREINCUBATION); “inactive; negative” (Test System: AMES SALMONELLA TYPHIMURIUM, Strain/Indicator: TA1537, Metabolic Activation: RAT, LIVER, S-9, AROCLOR 1254 (30%), Method: PREINCUBATION).

`Cn1c(N)nc2c3cnccc3ccc21`: the mutagenic call under setting [1] is “active; positive”.

Regarding `Cc1cc([N+](=O)[O-])c(C)c2c1[nH]c1ccccc12`, the mutagenic call under setting [2] is “active; positive”; the mutagenic call (Test System: AMES SALMONELLA TYPHIMURIUM, Strain/Indicator: TA98, Metabolic Activation: RAT LIVER S-9, AROCLOR 1254, Method: STANDARD PLATE) was “active; positive”; the mutagenic call under setting [3] is “inactive; negative”; the mutagenic call (Test System: AMES SALMONELLA TYPHIMURIUM, Strain/Indicator: TA100, Metabolic Activation: RAT LIVER S-9, AROCLOR 1254, Method: STANDARD PLATE) is “inactive; negative”; the mutagenic call under setting [4] was “inactive; negative”; the mutagenic call (Test System: AMES SALMONELLA TYPHIMURIUM, Strain/Indicator: TA1537, Metabolic Activation: RAT LIVER S-9, AROCLOR 1254, Method: STANDARD PLATE) is “active; positive”. Also, the mutagenic call is, setting by setting: (Test System: AMES SALMONELLA TYPHIMURIUM, Strain/Indicator: TA1977, Metabolic Activation: NONE, Method: STANDARD PLATE) “active; positive”; (Test System: AMES SALMONELLA TYPHIMURIUM, Strain/Indicator: TA1977, Metabolic Activation: RAT LIVER S-9, AROCLOR 1254, Method: STANDARD PLATE) “active; positive”.

With `O=C1C=C[C@]2(O)c3c(ccc(O)c31)-c1ccc(O)c3c1[C@H]2C1OC1C3=O` (some centres not stated), the mutagenic call by setting is: under setting [2], “active; positive”; under setting [1], “active; positive”; under setting [3], “active; positive”; (Test System: AMES SALMONELLA TYPHIMURIUM, Strain/Indicator: TA100, Metabolic Activation: RAT, LIVER, S-9, AROCLOR 1254, Method: STANDARD PLATE) “active; positive”; (Test System: AMES SALMONELLA TYPHIMURIUM, Strain/Indicator: TA1535, Metabolic Activation: NONE, Method: STANDARD PLATE) “inactive; negative”; (Test System: AMES SALMONELLA TYPHIMURIUM, Strain/Indicator: TA1535, Metabolic Activation: RAT, LIVER, S-9, AROCLOR 1254, Method: STANDARD PLATE) “inactive; negative”. For the same compound, the mutagenic call by setting is: under setting [4], “active; positive”; (Test System: AMES SALMONELLA TYPHIMURIUM, Strain/Indicator: TA1537, Metabolic Activation: RAT, LIVER, S-9, AROCLOR 1254, Method: STANDARD PLATE) “active; positive”.

Consider `C/C=C\C1=CC(=O)[C@]23C[C@H]2C(C)(C)O[C@]3(O)C1=O`, for which the mutagenic call is “inactive; negative” (Test System: AMES SALMONELLA TYPHIMURIUM, Strain/Indicator: TA97, Metabolic Activation: NONE); “inactive; negative” (Test System: AMES SALMONELLA TYPHIMURIUM, Strain/Indicator: TA98, Metabolic Activation: NONE); “active; positive” (Test System: AMES SALMONELLA TYPHIMURIUM, Strain/Indicator: TA100, Metabolic Activation: NONE); “active; positive” (Test System: AMES SALMONELLA TYPHIMURIUM, Strain/Indicator: TA102, Metabolic Activation: NONE).

With `c1ccc2c(c1)ccc1ccc3ccsc3c12`, the mutagenic call (Test System: Ames Salmonella typhimurium, Strain/Indicator: TA98, Metabolic Activation: None, Method: Plate incorporation) was “active; positive”; the mutagenic call (Test System: Ames Salmonella typhimurium, Strain/Indicator: TA100, Metabolic Activation: None, Method: Plate incorporation) is “active; positive”; the mutagenic call (Test System: Ames Salmonella typhimurium, Strain/Indicator: TA1040, Metabolic Activation: None, Method: Plate incorporation) is “inactive; negative”.
